Data: ChEMBL document CHEMBL4321821, “Opioids as Substrates and Inhibitors of the Genetically Highly Variable Organic Cation Transporter OCT1” (J Med Chem, 2019)
Active and inactive are the calls of the source. No cut-off for these calls is given here.

Assays:
OCT1 (SLC22A1) [1] = molecular target: T1, OCT1 (SLC22A1) (Homo sapiens, UniProt O15245); assay: Substrate activity at human OCT1 expressed in HEK293 cells assessed as increase in compound uptake at 0.05 uM incubated for 2 mins by LC-MS/MS analysis relative to control empty vector transfected cells; assay type: cell-based; conditions: HEK293 cells that express human OCT1, read-out: FC
T1 sequence (O15245 whole entry): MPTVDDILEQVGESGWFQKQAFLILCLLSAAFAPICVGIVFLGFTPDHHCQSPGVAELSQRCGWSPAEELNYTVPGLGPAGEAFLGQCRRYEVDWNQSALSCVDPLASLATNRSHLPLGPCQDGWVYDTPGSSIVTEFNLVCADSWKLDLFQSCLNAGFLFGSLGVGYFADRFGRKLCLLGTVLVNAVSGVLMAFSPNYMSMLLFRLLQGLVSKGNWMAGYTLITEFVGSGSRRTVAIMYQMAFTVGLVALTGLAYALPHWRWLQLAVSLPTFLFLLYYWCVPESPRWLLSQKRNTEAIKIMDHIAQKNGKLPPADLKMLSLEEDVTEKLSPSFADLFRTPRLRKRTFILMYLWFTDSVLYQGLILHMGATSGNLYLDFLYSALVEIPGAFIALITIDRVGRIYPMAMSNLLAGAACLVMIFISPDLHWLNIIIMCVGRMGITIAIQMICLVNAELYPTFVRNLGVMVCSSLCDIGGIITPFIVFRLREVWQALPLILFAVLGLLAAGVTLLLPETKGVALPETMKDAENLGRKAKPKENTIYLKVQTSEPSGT

OCT1 (SLC22A1) [2] = molecular target: T1, OCT1 (SLC22A1); assay: Substrate activity at human OCT1 expressed in HEK293 cells assessed as increase in compound uptake at 0.1 uM incubated for 2 mins by LC-MS/MS analysis relative to control empty vector transfected cells; assay type: cell-based; conditions: HEK293 cells that express human OCT1, read-out: FC
OCT1 (SLC22A1) [3] = molecular target: T1, OCT1 (SLC22A1); assay: Substrate activity at human OCT1 expressed in HEK293 cells assessed as increase in compound uptake at 0.5 uM incubated for 2 mins by LC-MS/MS analysis relative to control empty vector transfected cells; assay type: cell-based; conditions: HEK293 cells that express human OCT1, read-out: FC
[4] = molecular target: T2, Solute carrier family 22 member 1 (Homo sapiens, UniProt O15245); assay: Inhibition of human OCT1 expressed in HEK293 cells assessed as reduction in ASP+ substrate uptake by microplate reader based analysis; assay type: cell-based
T2 sequence (O15245 whole entry): T1 sequence (O15245 whole entry)

[5] = Cmax in human at 10 mg, po dosed as controlled release formulation; assay type: ADME, organism-based; parameters: dose 10 mg, route oral; conditions: in vivo
[6] = Unbound Cmax in human at 10 mg, po dosed as controlled release formulation; assay type: ADME, organism-based; conditions: in vivo
[7] = Unbound maximal portal vein concentration of in human at 10 mg, po dosed as controlled release formulation; assay type: ADME, organism-based; conditions: in vivo
[8] = Ratio of unbound Cmax in human at 10 mg, po dosed as controlled release formulation to inhibition of human OCT1 expressed in HEK293 cells assessed as reduction in ASP+ substrate uptake by microplate reader based analysis; assay type: ADME, organism-based; conditions: in vivo
[9] = Ratio of unbound maximal portal vein concentration in human at 10 mg, po dosed as controlled release formulation to inhibition of human OCT1 expressed in HEK293 cells assessed as reduction in ASP+ substrate uptake by microplate reader based analysis; assay type: ADME, organism-based; conditions: in vivo
[10] = Cmax in human at 5 mg, po dosed as immediate release formulation; assay type: ADME, organism-based; parameters: dose 5 mg, route oral; conditions: in vivo
[11] = Unbound Cmax in human at 5 mg, po dosed as immediate release formulation; assay type: ADME, organism-based; conditions: in vivo
[12] = Unbound maximal portal vein concentration of in human at 5 mg, po dosed as immediate release formulation; assay type: ADME, organism-based; conditions: in vivo
[13] = Ratio of unbound Cmax in human at 5 mg, po dosed as immediate release formulation to inhibition of human OCT1 expressed in HEK293 cells assessed as reduction in ASP+ substrate uptake by microplate reader based analysis; assay type: ADME, organism-based; conditions: in vivo
[14] = Ratio of unbound maximal portal vein concentration in human at 5 mg, po dosed as immediate release formulation to inhibition of human OCT1 expressed in HEK293 cells assessed as reduction in ASP+ substrate uptake by microplate reader based analysis; assay type: ADME, organism-based; conditions: in vivo
in vitro = conditions: PAMPA
Description: Passive membrane permeability by LC-MS/MS analysis based PAMPA

[15] = Cmax in human at 50 mg, po dosed as slow release formulation; conditions: in vivo
[16] = Cmax in human at 10 mg, iv; conditions: in vivo
[17] = Cmax in human at 10 mg, im; conditions: in vivo
[18] = Cmax in human at 10 mg, po dosed as immediate release formulation; conditions: in vivo
[19] = Cmax in human at 50 mg, iv; assay type: ADME; parameters: dose 50 mg, route intravenous; conditions: in vivo
[20] = Unbound Cmax in human at 50 mg, iv; assay type: ADME; conditions: in vivo
[21] = Unbound maximal portal vein concentration of in human at 50 mg, iv; assay type: ADME, tissue-based; conditions: in vivo
[22] = Ratio of unbound Cmax in human at 50 mg, iv to inhibition of human OCT1 expressed in HEK293 cells assessed as reduction in ASP+ substrate uptake by microplate reader based analysis; assay type: ADME, organism-based; conditions: in vivo
[23] = Ratio of unbound maximal portal vein concentration in human at 50 mg, iv to inhibition of human OCT1 expressed in HEK293 cells assessed as reduction in ASP+ substrate uptake by microplate reader based analysis; assay type: ADME, organism-based; conditions: in vivo
[24] = Cmax in human at 50 mg, po; assay type: ADME; parameters: dose 50 mg, route oral; conditions: in vivo
[25] = Unbound Cmax in human at 50 mg, po; assay type: ADME; conditions: in vivo
[26] = Unbound maximal portal vein concentration of in human at 50 mg, po; assay type: ADME, tissue-based; conditions: in vivo
[27] = Ratio of unbound Cmax in human at 50 mg, po to inhibition of human OCT1 expressed in HEK293 cells assessed as reduction in ASP+ substrate uptake by microplate reader based analysis; assay type: ADME, organism-based; conditions: in vivo
[28] = Ratio of unbound maximal portal vein concentration in human at 50 mg, po to inhibition of human OCT1 expressed in HEK293 cells assessed as reduction in ASP+ substrate uptake by microplate reader based analysis; assay type: ADME, organism-based; conditions: in vivo
[29] = molecular target: T2, Solute carrier family 22 member 1; assay: Substrate activity at human OCT1 expressed in HEK293 cells assessed as increase in compound uptake by measuring Vmax incubated for 2 mins by LC-MS/MS analysis based Michaelis-Menten plot analysis relative to control empty vector transfected cells; assay type: cell-based; conditions: hek293, 2 min
OCT1 (SLC22A1) [30] = molecular target: T1, OCT1 (SLC22A1); assay: Substrate activity at human OCT1 expressed in HEK293 cells assessed as increase in compound uptake by measuring Km incubated for 2 mins by LC-MS/MS analysis based Michaelis-Menten plot analysis relative to control empty vector transfected cells; assay type: cell-based; conditions: HEK293 cells that express human OCT1
HEK293 [31] = assay: Substrate activity at human OCT1*2 allele mutant expressed in HEK293 cells assessed as increase in compound uptake at 0.1 uM incubated for 2 mins by LC-MS/MS analysis relative to control empty vector transfected cells; assay type: cell-based
HEK293 [32] = assay: Substrate activity at human OCT1*3 allele mutant expressed in HEK293 cells assessed as increase in compound uptake at 0.1 uM incubated for 2 mins by LC-MS/MS analysis relative to control empty vector transfected cells; assay type: cell-based
HEK293 [33] = assay: Substrate activity at human OCT1*4 allele mutant expressed in HEK293 cells assessed as increase in compound uptake at 0.1 uM incubated for 2 mins by LC-MS/MS analysis relative to control empty vector transfected cells; assay type: cell-based
HEK293 [34] = assay: Substrate activity at human OCT1*5 allele mutant expressed in HEK293 cells assessed as increase in compound uptake at 0.1 uM incubated for 2 mins by LC-MS/MS analysis relative to control empty vector transfected cells; assay type: cell-based
HEK293 [35] = assay: Substrate activity at human OCT1*6 allele mutant expressed in HEK293 cells assessed as increase in compound uptake at 0.1 uM incubated for 2 mins by LC-MS/MS analysis relative to control empty vector transfected cells; assay type: cell-based
HEK293 [36] = assay: Substrate activity at human OCT1*8 allele mutant expressed in HEK293 cells assessed as increase in compound uptake at 0.1 uM incubated for 2 mins by LC-MS/MS analysis relative to control empty vector transfected cells; assay type: cell-based
HEK293 [37] = assay: Substrate activity at human OCT1*7 allele mutant expressed in HEK293 cells assessed as increase in compound uptake at 0.1 uM incubated for 2 mins by LC-MS/MS analysis relative to control empty vector transfected cells; assay type: cell-based
[38] = Intrinsic clearance in human liver microsomes; assay type: ADME, Microsome; conditions: read-out: CLH
[39] = Cmax in human at 450 mg, po; assay type: ADME; parameters: dose 450 mg, route oral; conditions: in vivo
[40] = Unbound Cmax in human at 450 mg, po; assay type: ADME; conditions: in vivo
[41] = Unbound maximal portal vein concentration of in human at 450 mg, po; assay type: ADME, tissue-based; conditions: in vivo
[42] = molecular target: T2, Solute carrier family 22 member 1; assay: Substrate activity at OCT1 in primary human hepatocytes assessed as increase in compound uptake at 0.1 uM incubated for 2 mins by LC-MS/MS analysis relative to control; assay type: cell-based
[43] = Cmax in human at 4 mg, po; assay type: ADME; parameters: dose 4 mg, route oral; conditions: in vivo
[44] = Unbound Cmax in human at 4 mg, po; assay type: ADME; conditions: in vivo
[45] = Unbound maximal portal vein concentration of in human at 4 mg, po; assay type: ADME, tissue-based; conditions: in vivo

Compound: COc1ccc2c3c1O[C@H]1C(=O)CC[C@@]4(O)[C@@H](C2)N(C)CC[C@]314 [OXYCODONE]
- uptake ratio at 2 min, 0.05 µM (OCT1 (SLC22A1) [1]): 0.9
- uptake ratio at 2 min, 0.1 µM (OCT1 (SLC22A1) [2]): 0.8
- uptake ratio at 2 min, 0.5 µM (OCT1 (SLC22A1) [3]): 0.9
- IC50 [4]: 2000 µM
- Cmax [5]: 50 nM
- fCmax [6]: 0.03 µM
- fCmax [7]: 1.06 µM
- Ratio [8]: 0.00001
- Ratio [9]: 0.001
- Cmax [10]: 50 nM
- fCmax [11]: 0.03 µM
- fCmax [12]: 0.54 µM
- Ratio [13]: 0.00001
- Ratio [14]: 0.0003
- Papp (in vitro): 17.9 ×10⁻⁶ cm/s

Compound: CN1CC[C@]23c4c5ccc(O)c4O[C@H]2[C@@H](O)C=C[C@H]3[C@H]1C5 [MORPHINE]
- IC50 [4]: 71.8 to 72 µM
- Cmax [15]: 30 nM
- Cmax [16]: 1050 nM
- Cmax [17]: 250 nM
- Cmax [18]: 40 nM

Compound: CCOC(=O)[C@@]1(c2ccccc2)CCC=C[C@@H]1N(C)C
- uptake ratio at 2 min, 0.05 µM (OCT1 (SLC22A1) [1]): 1.3
- uptake ratio at 2 min, 0.1 µM (OCT1 (SLC22A1) [2]): 1.3
- uptake ratio at 2 min, 0.5 µM (OCT1 (SLC22A1) [3]): 1.3
- IC50 [4]: 38.7 µM
- Cmax [19]: 3310 nM
- fCmax [20]: 2.49 µM
- fCmax [21]: 10.58 µM
- Ratio [22]: 0.064
- Ratio [23]: 0.273
- Cmax [24]: 110 nM
- fCmax [25]: 0.08 µM
- fCmax [26]: 8.18 µM
- Ratio [27]: 0.002
- Ratio [28]: 0.211
- Papp (in vitro): 31.6 ×10⁻⁶ cm/s

Compound: C[N+]1(CC2CC2)CC[C@]23c4c5ccc(O)c4O[C@H]2C(=O)CC[C@@]3(O)[C@H]1C5 (stereo not given in full) [METHYLNALTREXONE]
- Vmax [29]: 371.9 pmol/min/mg
- Km at 2 min (OCT1 (SLC22A1) [30]): 20 to 20.3 µM
- Activity (HEK293 [31]): inactive
- Activity (HEK293 [32]): inactive
- Activity (HEK293 [33]): inactive
- Activity (HEK293 [34]): inactive
- Activity (HEK293 [35]): inactive
- Activity (HEK293 [36]): Active
- Activity (HEK293 [37]): Active
- IC50 [4]: 234 µM
- microsomal CLint [38]: 32 µL/min/mg
- Cmax [39]: 140 nM
- fCmax [40]: 0.12 µM
- fCmax [41]: 64.93 µM

Compound: CN1CC[C@]23c4c5ccc(O)c4O[C@H]2C(=O)CC[C@H]3[C@H]1C5 [HYDROMORPHONE]
- fold change (FC) [42]: 1.7
- Activity (HEK293 [31]): inactive
- Activity (HEK293 [32]): inactive
- Activity (HEK293 [33]): inactive
- Activity (HEK293 [35]): inactive
- Activity (HEK293 [36]): Active
- Activity (HEK293 [37]): Active
- IC50 [4]: 138 µM
- Cmax [43]: 40 nM
- fCmax [44]: 0.03 µM
- fCmax [45]: 0.72 µM
